{
  "source": "patent US5059692A",
  "about": "“Novel compounds exhibiting a vasodilating activity and inhibitory activity for platelet aggregation” (priority 1989, dated 1991)",
  "key": {"washed platelets": {"test_system": "washed platelets", "assay": "Inhibition of Platelets Aggregation (P.A.IC50), collagen-induced, washed platelets, turbidmetric method", "assay_type": "cell-based", "conditions": "Platelet, human washed platelets, 37° C., 2 min preincubation", "procedure": "Inhibition of Platelets Aggregation (P.A.IC50)\nPreparation of washed platelets (centrifugation method) Blood drawn from healthy human volunteers was anticoagulated with 1/10 volume of 0.38% sodium citrate. Platelets-rich plasma (PRP) was obtained by centrifugation of whole blood at 700× G for 10 minutes. The resulting PRP was then centrifuged at 1500× G for 10 minutes in the presence of 1/6 volume of ACD solution (2.2% of sodium citrate, 0.8% of citric acid and 2.2% of glucose), and the pellet was suspended with the modified HEPES-Tyrode solution (135 mM NaCl, 2.7 mM KCl, 1 mM MgCl2, 0.1% glucose, and 20 mM HEPES; pH 7.4).\nAfter the platelet suspension was centrifuged again at 1500× G for 5 minutes with 1/6 volume of the ACD solution, the pellet was resuspended with the modified HEPES-Tyrode solution. Then the washed platelet suspension (=300,000 platelets/μl) was obtained.\nMeasurement of Platelet Aggregation (Turbidmetric Method)\nPlatelet aggregation was studied by the turbidmetric method with an 4 ch. aggregometer (HEMA tracer 601; Nikoh Bioscience Co., Japan). Test sample (3 μl, appropriate concentration) or vehicle (3 μl) was added to 270 μl of the platelet suspension and incubated at 37° C. with stirring for 2 minutes before the addition of 30 μl collagen ([…]).\nEstimation of Inhibitory Action\nThe extent of aggregation was expressed by the maximum change of light transmission expressed as a percentage, taking the difference between light transmission for the platelet suspension and platelet-poor-plasma as a value of 100%. Percent inhibition of aggregation by a test compound was calculated by dividing the percent aggregation by that observed in the control run, then multiplying by 100. IC50 values were expressed as the concentrations of test compounds which produced 50% inhibition of the platelet aggregation."}, "rabbit mesenteric artery": {"test_system": "rabbit mesenteric artery", "assay": "Vasorelaxant Effect (V.R., ED50), KCl-precontracted mesenteric artery strips", "conditions": "Oryctolagus cuniculus; rabbit superior mesenteric artery helical strips, precontracted with 20 mM KCl, 37°±0.5° C., cumulative addition", "procedure": "Vasorelaxant Effect (V.R., ED50)\nMale albino rabbits were killed by exanguination.\nThe vascular strips were vertically suspended in an organ bath filled with a Krebs-Henseleit solution the temperature of which was maintained at 37°±0.5° C. A mixture of 95% O2 -5% CO2 was constantly bubbled through the bicarbonate-based solution in the organ bath. Mechanical responses of the rabbit mesenteric artery evoked by a high concentration of KCl were measured isometrically using the force-displacement transducer.\nAfter obtaining a reproducible response to KCl, the preparations were precontracted with 20 mM KCl and then relaxed by the cumulative addition of the compounds. The ED50 value was read from a plot of the percentage of the relaxing response (maximum contractile response to KCl was taken as 100%) vs. the log concentration of the compounds."}},
  "data": [
    {"smiles": "COC(=O)c1sc2c(c1N=C1CCCN1C)c1ccccc1c(=O)n2-c1ccccc1C", "note": "[compound 9, Methyl 4,5-dihydro-4-(2-methylphenyl)-1-(1-methyl-2-pyrrolidinylideneamino)-5-oxo-thieno[2,3-c]isoquinoline-2-carboxylate]", "values": [
      {"measurement": "IC50", "setting": "washed platelets", "result": 100, "unit": "µM"},
      {"measurement": "EC50", "setting": "rabbit mesenteric artery", "result": 1.1, "unit": "µM"}
    ]},
    {"smiles": "COC(=O)c1sc2c(c1N)c1ccccc1c(=O)n2-c1ccccc1Cl", "note": "[compound 4, Methyl 1-amino-4-(2-chlorophenyl)-4,5-dihydro-5-oxo-thieno[2,3-c]isoquinoline-2-carboxylate]", "values": [
      {"measurement": "IC50", "setting": "washed platelets", "result": 0.1, "unit": "µM"},
      {"measurement": "EC50", "setting": "rabbit mesenteric artery", "result": 5.7, "unit": "µM"}
    ]},
    {"smiles": "COC(=O)c1sc2c(c1N=CN(C)C)c1ccccc1c(=O)n2-c1ccccc1C", "note": "[compound 8, Methyl 1-dimethylaminomethyleneamino-4,5-dihydro-4-(2-methylphenyl)-5-oxo-thieno[2,3-c]isoquinoline-2-carboxylate]", "values": [
      {"measurement": "EC50", "setting": "rabbit mesenteric artery", "result": 1.6, "unit": "µM"}
    ]},
    {"smiles": "COC(=O)c1sc2c(c1N)c1ccsc1c(=O)n2-c1ccccc1", "note": "[compound 3, Methyl 1-amino-4,5-dihydro-5-oxo-4-phenyl-dithieno[2,3-b:3',2'-d]pyridine-2-carboxylate]", "values": [
      {"measurement": "IC50", "setting": "washed platelets", "result": 0.26, "unit": "µM"}
    ]},
    {"smiles": "COC(=O)c1sc2c(c1N=CN(C)C)c1ccccc1c(=O)n2-c1ccccc1", "note": "[compound 7, Methyl 1-dimethylaminomethyleneamino-4,5-dihydro-5-oxo-4-phenyl-thieno[2,3-c]isoquinoline-2-carboxylate]", "values": [
      {"measurement": "IC50", "setting": "washed platelets", "result": 100, "unit": "µM"},
      {"measurement": "EC50", "setting": "rabbit mesenteric artery", "result": 74, "unit": "µM"}
    ]},
    {"smiles": "COC(=O)c1sc2c(c1N)-c1ccccc1CN2c1ccccc1", "note": "[compound 10, Methyl 1-amino-4,5-dihydro-4-phenyl-thieno[2,3-c]isoquinoline-2-carboxylate]", "values": [
      {"measurement": "IC50", "setting": "washed platelets", "result": 0.31, "unit": "µM"},
      {"measurement": "EC50", "setting": "rabbit mesenteric artery", "result": 8, "unit": "µM"}
    ]},
    {"smiles": "COC(=O)c1sc2c(c1N)c1ccccc1c(=O)n2-c1ccccc1", "note": "[compound 1, Methyl 1-amino-4,5-dihydro-5-oxo-4-phenyl-thieno[2,3-c]isoquinoline-2-carboxylate]", "values": [
      {"measurement": "IC50", "setting": "washed platelets", "result": 0.023, "unit": "µM"},
      {"measurement": "EC50", "setting": "rabbit mesenteric artery", "result": 20, "unit": "µM"}
    ]},
    {"smiles": "COC(=O)c1sc2c(c1N)c1ccccc1c(=O)n2-c1ccccc1C", "note": "[compound 2, Methyl 1-amino-4,5-dihydro-4-(2-methylphenyl)-5-oxo-thieno[2,3-c]isoquinoline-2-carboxylate]", "values": [
      {"measurement": "IC50", "setting": "washed platelets", "result": 0.56, "unit": "µM"},
      {"measurement": "EC50", "setting": "rabbit mesenteric artery", "result": 4.6, "unit": "µM"}
    ]}
  ]
}
